PubChem BioAssay AID179 (DTP/NCI, 2004)
Activity calls are given as the source filed them.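 The calls were made as follows: active = compounds giving half or more protection of infected cells from virus-caused growth loss, again on retest; inactive = the rest.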

Tested on: CEM cells HIV-1 protection, formazan growth assay
Experiment: NCI AIDS Antiviral Assay
Conditions: for IC50: measured here: growth of uninfected CEM cells
Outline: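 Protection of CEM cells against HIV-1 was scored from cell growth (soluble formazan) across five concentrations, with parallel uninfected cells. Lack of protection may reflect toxicity.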

SMILES	EC50 [µM]	IC50 [µM]	outcome
COc1ccc2[nH]c3c(c2c1)CCNC3CC(C)CCC=C(C)C (stereo unspecified)	> 100	6.31	
CC(=S)N/C=C/c1c(C(=O)O)cc([N+](=O)[O-])cc1[N+](=O)[O-]			inactive
C=C1CC[C@]2(C)C3CC[C@]4(C)C(C(C)CCC(=O)OC)CCC4[C@@H]3CC[C@@H]2C1 (stereo partly specified)	> 87.1	> 87.1	
COc1ccc2c(CN3CCCCC3CO)cc3cc(OC)c(OC)cc3c2c1 (stereo unspecified)			inactive
Cc1n(CC(=O)c2ccccc2)nc2sc(N)n[n+]12	> 200	123	
O=C1C=CC(=O)c2cc(Sc3ccccc3)c(=O)ccc21	> 123	1.26	
O=c1[nH]nc(Cc2ccccc2)n1/N=C/c1cccnc1	56.2	> 200	
Cn1c(=O)c2nc(-c3ccc(Cl)c(Cl)c3)c(-c3ccc(Cl)c(Cl)c3)nc2n(C)c1=O	> 200	29.5	
CC(C)C(=O)CC(c1ccc(Br)cc1)N1N=C(C(C)C)CC1c1ccc(Br)cc1 (stereo unspecified)	> 10	> 10	
CCOC(=O)c1c2ccc(/C=C/c3ccccc3)ccc-2c(C(=O)OCC)c1N	> 7.08	> 7.08	
CCC[CH2][Sn]1([CH2]CCC)[O]CC(CN2CCCCC2)[O]1 (stereo unspecified)	> 9.33	0.0646	
CN/N=C(\C)CC(=O)Nc1cccc(Cl)c1C	> 14.8	> 14.8	
O=C(O)CSc1n[nH]c(-c2ccccc2O)n1	> 372	182	
CC1C(=O)OC2C=CC3(C)C(=O)OC4OC5(c6ccoc6)CC1(O)C2(C)C43O5 (stereo unspecified)	> 200	> 200	
O=C(O)c1ccc([N+](=O)[O-])c2cc3cnccc3nc12	> 200	2.88	
OCCN1c2ccccc2Sc2ccc(Cl)cc21	> 200	61.7	
Cc1ccc(-n2c3nc(=O)n(C)c(=O)c-3nc3ccccc32)c(C)c1			inactive
C[C@@H]1OC(=O)N2CCCC(=C3SCCCS3)C12 (stereo partly specified)			inactive
CNc1ncnc2c1ncn2C1OC(CO)C(O)C1O (stereo unspecified)			inactive
Cn1nc(-c2ccccc2)c(C(=O)/C=C/c2ccc(F)cc2)c(N2CCOCC2)c1=O	> 87.1	> 87.1	
CN1c2ccccc2N(C(=O)c2ccc(Cl)cc2)C(CC(=O)O)c2cccn21 (stereo unspecified)	> 631	117	
COc1cc(-c2nc(SC)nc3c2CCc2ccccc2-3)cc(OC)c1OC	> 200	> 200	
COC(=O)C(=O)C(/C(=N/N)C(=O)Nc1ccccc1C(N)=O)c1nc2ccc([N+](=O)[O-])cc2[nH]c1=O (stereo unspecified)	> 501	204	

SMILES	EC50 [µM]	IC50 [µM]	outcome
CCNc1nc2ccccc2nc1NCC	> 200	> 200	
CN(C)/C=C/c1c2c(nc3ccccc13)C(=O)c1cccnc1C2=O			inactive
Cc1sc2ccccc2c2nc3ccccc3c1-2			inactive
COc1ccc(OC)c(/C=C/[N+](=O)[O-])c1	> 200	2.95	
Cc1ccc2nc(C=Nc3ccc(Cl)cc3)cc(C)c2c1			inactive
N#Cc1cccc(-n2[nH]c(=O)ccc2=O)c1	> 200	> 200	
Cn1c(=S)[nH]n(CCOc2ccccc2)c1=S	> 200	> 200	
CCOC(=O)c1c(N2CCOCC2)[nH]c(=O)c(C(c2ccco2)c2c(O)c(C(=O)OCC)c(N3CCOCC3)[nH]c2=O)c1O	> 200	> 200	
O=C(N/N=C\c1cccs1)c1ccncc1	> 200	> 200	
N#CC(C(=O)CCC(=O)Nc1cccc(C(F)(F)F)c1)c1ccccc1 (stereo unspecified)	> 692	> 692	
CCN(C(=S)N[C@@H](Cc1ccccc1)C(=O)N[C@@H](CC(C)C)C(=O)OC)c1ccccc1	> 200	25.7	
COc1cc(/C=N/NC(=O)CC(=O)N(C(=O)c2ccc(Cl)cc2)c2ccc(C)cc2)ccc1O	> 195	> 195	
O=C(O)C12CCCCC1CCCC2 (stereo unspecified)	> 372	> 372	
C[C@@]1(O)C2C3CC4C5C3C1[C@](O)(C42)[C@H]5Br (stereo partly specified)			inactive
CN1C(=O)OC2OC(C)(c3ccc(S(=O)(=O)c4ccccc4)cc3)C(=O)CC21 (stereo unspecified)	> 123	> 123	
Cc1ccccc1C(C#N)C(=O)C(=O)Nc1nc([N+](=O)[O-])cs1 (stereo unspecified)	> 7.94	> 7.94	
O=C(NNC(=O)c1nsc2ccccc12)c1ccc(Cl)cc1	> 8.13	> 8.13	
Nc1cc(C(F)(F)F)ccc1S	> 200	22.9	
N#Cc1[nH]c(=O)n(-c2ccc([N+](=O)[O-])cc2)c1N	> 200	> 200	
CCCNC(=O)c1nc(SC)sc1NC(=O)c1ccccc1	> 200	> 200	
CO[C@@]12[C@@H]3N[C@@H]3CN1C1=C(C(=O)C(NCCc3ccccn3)=C(C)C1=O)[C@@H]2COC(N)=O	> 200	2	
Cc1cc2c(=O)cc(-c3ccc(Cl)cc3Cl)oc2c(C(=O)O)c1C			inactive
CC(=O)OC1CCC(OC(C)=O)[C@H]2[C@@H]1[C@@H]1S[C@H]2c2ccccc21 (stereo partly specified)	> 200	42.7	

SMILES	EC50 [µM]	IC50 [µM]	outcome
O=C(c1ccccc1)c1nc2c(Cl)ccc(Cl)c2cc1C(Br)Br	> 2.19	> 2.19	
COc1ccc2c(c1)OCc1c-2oc2ccccc2c1=O	> 100	> 100	
O=[As](O)(O)c1ccc(OCCO)cc1	> 200	> 200	
Cc1ccc2nc(C(C)C)c(=O)[nH]c2c1	> 200	> 200	
COc1ccc(OC)c(NC(=O)CCC/C(CC(=O)c2ccc(O)c(OC)c2)=N\Nc2ccc([N+](=O)[O-])cc2)c1	> 13.2	> 13.2	
CCOC(=O)c1cc(Br)c(-c2cc(C)co2)[nH]1	> 200	> 200	
CC(=O)/C(=C/c1cccc(F)c1)C(=O)c1ccccc1	> 19.5	> 19.5	
NS(=O)(=O)c1nnc(NS(=O)(=O)c2ccccc2C(=O)O)s1	> 200	> 200	
NC(=O)CNC(=O)c1ccccc1SC(=O)NCCBr	2	10	
CN1C/C(=C\c2ccco2)c2nc(N)nc(-c3ccco3)c2C1			inactive
CC1(C(=O)O)CCC[C@@]2(C)C1CC[C@@]1(C)c3cocc3CCC21 (stereo partly specified)			inactive
C/C=C(\C)C(=O)O[C@@H]1CC[C@]2(CO2)C2(COC(C)=O)C(OC(C)=O)CC(C)[C@](C)(C[C@H](O)C3=CC(=O)OC3)[C@@H]12 (stereo partly specified)			inactive
CCCCN(CCCC)CC(N=O)c1cc(-c2ccc(Cl)c(Cl)c2)nc2c(Cl)cc(Cl)cc12 (stereo unspecified)			inactive
Nn1c(CNc2ccc(-c3nnc(Nc4ccc(Cl)cc4)n3N)cc2)nnc1Nc1ccc(Cl)cc1	> 200	67.6	
CCOC(=O)c1cc(C2=CCNC2=O)c(-c2cc(C)no2)[nH]1	> 200	33.1	
Cc1ccccc1N=CN(C)C	> 200	42.7	
COc1ccc2c(c1)OC[C@@H]1c3cc(OC)c(OCc4ccccc4)cc3O[C@H]21	6.61	> 100	
CCOC(=O)NC(=O)c1cn(CCCCCCOC(=O)NCCCCCCNC(=O)OCCCCCCn2cc(C(=O)NC(=O)OCC)c(=O)[nH]c2=O)c(=O)[nH]c1=O			inactive
CCOC(=O)Oc1cc2ccsc2c2c1c1ccccc1n2C(=O)OCC	> 200	35.5	
CC(C)(C)/C(O)=C\c1nc2cc(F)c(F)cc2[nH]c1=O	> 200	182	
C=CCC(NCc1ccccc1)[C@H](OCc1ccccc1)[C@@H]1COC(C)(C)O1 (stereo partly specified)	> 200	> 200	
NC(CCSCc1ccccc1)P(=O)(O)O (stereo unspecified)	> 200	> 200	
CC(CC(C)[C@H]1CCC2[C@H]3C(CC(=O)[C@@]21C)[C@@]1(C)CCC(O)C[C@H]1C[C@@H]3O)C(=O)O (stereo partly specified)	> 200	162	

SMILES	EC50 [µM]	IC50 [µM]	outcome
Cc1cc2cc3ccc4cccc5ccc(c2oc1=O)c3c45			inactive
CCCCCCOC(=O)Nc1nnc(SSC2=NN=CC2NC(=O)OCCCCCC)s1 (stereo unspecified)	> 200	19.5	
O=C(Cc1ccccc1)N=Nc1c(O)[nH]c2ccccc12	> 200	> 200	
CCOC(=O)C(C)Sc1nnc(COc2ccccc2OC)n1-c1ccccc1 (stereo unspecified)	> 200	162	
O=C1CCOc2cc(ccc2O)CCN1	> 200	> 200	
O=C1N=NC(=O)N1c1cc(C(F)(F)F)cc(C(F)(F)F)c1	> 200	2.88	
CN1c2c(nc(N)[nH]c2=O)NCC1CCNc1ccc(C(=O)NC(CCC(=O)O)C(=O)O)cc1 (stereo unspecified)	> 240	204	
O=C1CCC2(c3ccc(F)cc3)Nc3ccc(Cl)cc3N12 (stereo unspecified)	> 61.7	45.7	
Cc1ccc2[nH]c(N(C)C)nc2c2nc(Cl)nc1-2	> 200	117	
[N-]=[N+]=Nc1cc(=O)[nH]nc1-c1ccccc1	> 200	> 200	
CCC(C(=O)C(=O)OC)P1(=O)OC(C)(C)CN1C(C)(C)C (stereo unspecified)	> 200	> 200	
O=C1c2ccccc2CC12Cc1ccc3c(c1C2=O)CCCC3 (stereo unspecified)	> 200	> 200	
NC(=O)NC1C(c2ccccc2)=NOC1C(N)=O (stereo unspecified)	> 200	> 200	
O=C(O)c1[nH]c(=O)[nH]c(=O)c1I	> 200	> 200	
S=C1NC(c2ccccc2)Nc2ccccc21 (stereo unspecified)	> 107	> 107	
Clc1ccccc1OCc1nc2ccccc2[nH]1	> 200	> 200	
CC1(C)C2CCC3(OCCO3)C1C(O)C2 (stereo unspecified)	> 427	> 427	
O=c1c(-c2ccc(O)cc2)coc2cc(O)cc(O)c12	> 200	5.62	
CC(C)[C@H]1CO[C@]2(C)[C@@H]3CN(Cc4ccccc4)C[C@@H]3C(=O)N12	> 214	> 214	
C=CC(C)(C)n1cc(C2=C3OC(=O)C(c4cn(C(C)(C)C=C)c5ccccc45)=C3OC2=O)c2ccccc21	> 200	> 200	
COc1cccc2c1C1=CC(=O)CCC1C(C)(C)O2 (stereo unspecified)	> 195	110	
Cc1csc(CP(=O)(OC(C)C)OC(C)C)n1	> 200	> 200	
